Each block holds one molecule with its values, some of them ahead of it.
How the values were obtained:
Plasmodium falciparum = test: P. falciparum-infected erythrocyte proliferation, SYBR green incorporation; assay type: cell-based; details: infected erythrocytes, 72 hours; read-out: EC50 against P. falciparum
Text: The maintenance of Plasmodium falciparum cultures and conducting of in vitro inhibitor response assays have been previously described.

Gram positive bacteria = details: cited from earlier work
Gram negative bacteria = details: cited from earlier work
NLRP3 inflammasome = tested on: NLRP3 inflammasome; parameters: method as in PMID 30183250; details: through activity as a potassium ionophore; cited from earlier work
[1] = tested on: hypoxia-inducible factor-1 transcription; parameters: method as in PMID 17256467; details: under hypoxic conditions; cited from earlier work
rodent malaria = tested on: rodent malaria; parameters: method as in PMID 994322; details: cited from earlier work
poultry coccidiosis = tested on: poultry coccidiosis; parameters: method as in earlier work; details: cited from earlier work

EC50 (Plasmodium falciparum): 0.02 nM
SMILES: C[C@H]1[C@@H](O)O[C@@H]2O[C@@]3(C)CC[C@H]4[C@H](C)CC[C@@H]1[C@@]24OO3 [DHA, dihydroartemesinin, reference compound]

SMILES: C[C@@H]1C(=O)C[C@@H](O)CC/C=C/C=C\CC[C@H](C)OC(=O)C(O)[C@]2(O)O[C@@H](CC[C@H]2C)[C@H](C)C(=O)C[C@@H](O)CC/C=C/C=C\CC[C@H](C)OC(=O)C(O)[C@]2(O)O[C@H]1CC[C@H]2C (stereo partly drawn) [Tartrolon A]
Activity against Gram positive bacteria (Gram positive bacteria): activity against Gram positive | Activity against Gram negative bacteria (Gram negative bacteria): not Gram negative bacteria

SMILES: C[C@@H]1C(=O)C[C@@H](O)CC/C=C\C=C\CC[C@H](C)OC(=O)[C@@H]2O[B-]34O[C@@H](C(=O)O[C@@H](C)CC/C=C\C=C\CC[C@H](O)CC(=O)[C@@H](C)[C@@H]5CC[C@@H](C)[C@]2(O5)O3)[C@@]2(O[C@H]1CC[C@H]2C)O4.[Na+] [Tartrolon B]
Activity against Gram positive bacteria (Gram positive bacteria): activity against Gram positive | Activation of the NLRP3 inflammasome (NLRP3 inflammasome): activate the NLRP3 inflammasome | Activity against Gram negative bacteria (Gram negative bacteria): not Gram negative bacteria

SMILES: C[C@@H]1C(=O)C[C@@H](O)CC/C=C/C=C\CC[C@H](C)OC(=O)[C@@H]2O[B-]34O[C@@H](C(=O)O[C@@H](C)CC/C=C\C=C\CC[C@H](O)CC(=O)[C@@H](C)[C@@H]5CC[C@](C)(O)[C@]2(O5)O3)[C@@]2(O[C@H]1CC[C@]2(C)O)O4 [Tartrolon C]
Inhibition of hypoxia-inducible factor-1 transcription [1]: inhibit hypoxia-inducible factor-1 transcription

SMILES: C[C@@H]1CC[C@@H]2O[C@]13O[B-]14O[C@H]3C(=O)O[C@H]3C[C@@H](/C=C/C[C@@H](O)C(C)(C)[C@@H]5CC[C@@H](C)[C@](O5)(O1)[C@@H](O4)C(=O)O[C@H]1C[C@@H](/C=C/C[C@@H](O)C2(C)C)O[C@@H]1C)O[C@@H]3C.[Na+] [aplasmomycin]
In vivo activity against rodent malaria (rodent malaria): active in vivo

SMILES: CC(C)[C@@H](N)C(=O)O[C@H](C)[C@@H]1C/C=C\CC[C@H](O)C(C)(C)[C@@H]2CC[C@@H](C)[C@@]3(O2)O[B-]24O[C@@H](C(=O)O1)[C@]1(O[C@@H](CC[C@H]1C)C(C)(C)[C@H](O)CCC[C@@H]1C[C@H](OC(=O)[C@@H]3O2)[C@@H](C)O1)O4.[H+] [boromycin]
In vivo activity against poultry coccidiosis (poultry coccidiosis): active in vivo

Reference: article PMC7274485, “A symbiotic bacterium of shipworms produces a compound with broad spectrum anti-apicomplexan activity” (PLoS Pathogens, 2020)
